How the values were obtained:
[1] = system: splenic lymphocytes; experiment: Ovalbumin-specific proliferative recall response of splenic lymphocytes after intrahepatic immunization; assay type: in vivo, BALB/c mice; conditions: intrahepatic (portal vein) ovalbumin immunization; boosted day 7 with ovalbumin/CFA; splenic lymphocytes 14 days after boost; FIG. 1
Excerpt: Four groups of BALB/c mice (The Jackson Laboratory, Bar Harbor, ME) of 6-8 weeks of age consisted of Group 1 intraperitoneal administration of ovalbumin, Group 2 intrahepatic administration of ovalbumin, Group 3 intrahepatic administration of ovalbumin together with lipiodol, and Group 4 intrahepatic administration of ovalbumin together with lipiodol and Poly (I:C).
Mice in Group 1(5 mice per group) where administered one hundred micrograms of ovalbumin (grade V; Sigma Aldrich) dissolved in 0.1 mL of 0.9% saline solution intraperitoneally. The following procedures were performed for mice receiving intrahepatic immunization: Mice were anesthetized with an intraperitoneal injection of ketamin at a concentration of 0.075 mg/g and medetomidine 0.005 mg/g (Sigma Aldrich, St Louis, Mo.). A midline abdominal incision was made, and the viscera were exposed. One hundred micrograms of ovalbumin was dissolved in 0.1 mL of 0.9% saline solution was injected into the portal vein with a 30-gauge needle for mice in Group 2. Mice in Group 3 received one hundred micrograms of ovalbumin dissolved in 0.1 mL of lipiodol (Guerbet, Roissy CdG Cedex, France). […] Cells were harvested onto glass fiber filters, and the radioactivity incorporated was quantitated using a Wallac Betaplate liquid scintillation counter. Results were expressed as the mean cpm of triplicate cultures±SEM. […]

[2] = system: IL-12 p70; experiment: IL-12 p70 production by LPS/TNF-activated bone marrow derived DC after siRNA transfection (ELISA); assay type: cell-based, C57/BL6 mice; conditions: day-7 bone marrow derived C57/BL6 DC; LPS/TNF activation day 8; supernatants day 10; FIG. 7
Method: At Day 0, bone marrow cells were flushed from the femurs and tibias of C57/BL6 mice, washed and cultured in 6-well plates (Corning, N.Y.) at 4×10^6 cells/well in 4 ml of complete medium (RPMI 1640 supplemented with 2 mM L-glutamine, 100 U/ml penicillin, 100 μg of streptomycin, 50 μM 2-ME, and 10% FCS (all from Life Technologies, Ontario, Canada) supplemented with recombinant GM-CSF (10 ng/ml; PeproTech, Rocky Hill, N.J.) and recombinant mouse IL-4 (10 ng/ml; PeproTech). All cultures were incubated at 37° C. in 5% humidified CO2. Non-adherent cells were removed after 48 h of culture (Day 2) and fresh medium was added. After 7 days of culture, >90% of the cells expressed the characteristic DC-specific marker CD11c as determined by FACS. DC were washed and plated in 24-well plates at a concentration of 2×10^5 cells/well in 400 μl of serum-free RPMI 1640. Transfection with GenePorter, lipiodol, or naked siRNA was performed as described below on day 7 of culture. […]
(§1) The supernatants from recall response T cell cultures or MLR were harvested and assessed for DC cytokines (IL-12p70, IL-10) and T cell cytokines (IFN-, IL-4) by ELISA. Cytokine-specific ELISA (Endogen, Rockford, Ill.) was used for detecting cytokine concentrations in culture supernatants according to the manufacturer's instructions using a Benchmark Microplate Reader (Bio-Rad, Hercules, Calif.). […]

[3] = system: BALB/c T cells responding to C57/BL6 DC; experiment: Mixed lymphocyte reaction, proliferation of responding allogeneic T cells; assay type: cell-based, mice; conditions: 3 day MLR; lipiodol-transfected C57/BL6 DC with naive BALB/c splenocytes; FIG. 9
Method: C57/BL6 DC after transfection were irradiated (3,000 rad) and seeded in triplicate at various concentrations in a flat-bottom 96-well plate (Coming) for use as stimulator cells. Splenic T cells from BALB/c mice were isolated by gradient centrifugation over Ficoll-Paque (Amersham Pharmacia Biotech, Quebec) and T cell nylon wool column purification, and added as responders (5×10^5 cells/well). The mixed lymphocytes were cultured at 37° C. for 72 h in 200 μl of RPMI 1640 supplemented with 10% FCS, 100 U/ml of penicillin, and 100 μg/ml of streptomycin and pulsed with 1 μCi/well of ^3H-labelled thymidine (Amersham Pharmacia Biotech) for the last 16 h of culture. Cells were harvested onto glass fiber filters, and the radioactivity incorporated was quatitated using a Wallac Betaplate liquid scintillation counter (Beckman, Fullerton, Calif.). Results were expressed as the mean counts per min of triplicate cultures±SEM. In some experiments anti-IL-10 (JES5 2A5, Pharmingen) or isotype control antibody were added for the duration of the MLR at a concentration of 5 ug/ml.
Since the specific function of DC in vivo is stimulation of T cell responses, we sought to determine whether the siRNA/lipiodol mixture had effects on inhibition of mixed lymphocyte reaction (MLR).

[4] = system: CD4 T cells from draining lymph nodes; experiment: KLH proliferative recall response after immunization with siRNA/lipiodol, CFA and KLH; assay type: in vivo, C57BL/6 mice; conditions: lipiodol/CFA composition with KLH, identical protocol to Example 10; FIG. 15
Method: (§2) C57/BL6 mice were immunized intradermally at the interior side of both hind legs with 100 μl of KLH or ovalbumin (1 μg/μl) emulsified in CFA (Difco Laboratories, Detroit, Mich.) in the presence or absence of 10 nMol siRNA and 10% lipiodol. After 14 days mice were sacrificed and T cells extracted as described above.
(§3) Proliferative recall responses to KLH and ovalbumin in immunized mice were assessed by sacrificing C57/BL6 mice 14 days after immunization with antigen-loaded DC. T cells were purified from suspensions of lymph nodes using CD4+ T cell column (R&D Systems) after washing in PBS. Purified T cells were cultured in 96 well plates with irradiated syngeneic splenocytes in triplicate and mixed with serial dilutions of KLH or OVA at concentrations ranging from 0-10 ug/ml. Following a 72-h incubation, 1 μCi of [^3H]thymidine (Amersham) was added to each well for 16 h. Using an automated cell harvester, the cells were collected onto glass microfiber filter, and the radioactive labeling incorporation was measured by a Wallac Betaplate liquid scintillation counter.
Accordingly, we used the KLH recall response as an indicator. C57BL/6 mice were immunized with the IL-12 siRNA/lipiodol mixture combined with CFA and KLH. […]

[5] = system: IFN-γ; experiment: KLH recall response supernatants, IFN-γ ELISA; assay type: in vivo, C57BL/6 mice; conditions: 14 days after immunization with siRNA/lipiodol, CFA and KLH, supernatants by ELISA, FIG. 13, FIG. 16
Method: as §2
as §3, with “Following a 72-h incubation, 1 μCi of [^3H]thymidine (Amersham) was added to each well for 16 h.” left out
as §1

[6] = system: IL-4; experiment: KLH recall response supernatants, IL-4 ELISA; assay type: in vivo, C57BL/6 mice; conditions: 14 days after immunization with siRNA/lipiodol, CFA and KLH, supernatants by ELISA, FIG. 14, FIG. 17
Method: as §2
as §3, with “Following a 72-h incubation, 1 μCi of [^3H]thymidine (Amersham) was added to each well for 16 h.” left out
as §1

[7] = listed as Lipiodol-siRNA targeting IL-10

Poly (I:C)
proliferative recall response to ovalbumin ([3H]thymidine) [1]: profound stimulation

mismatched siRNA: mismatched (mixed) control sequence (AACTGCCAGATGGATGGTGAC) (SEQ ID NO: 3) (listed as DNA, chemistry not given here) [reference compound]
inhibition of IL-12 production [2]: no inhibitory effect
proliferation of responding T cells / allostimulatory ability of DC in MLR [3]: not the mismatched (mixed) control inhibited proliferation

siRNA specific for IL-12p35: siRNA specific for IL-12p35 (AACCUGCUGAAGACCACAGAU) (SEQ ID NO: 1), Dharmacon (listed as RNA, chemistry not given here)
inhibition of IL-12 production [2]: > 30%
proliferation of responding T cells / allostimulatory ability of DC in MLR [3]: inhibited proliferation

siRNA targeting IL-10: siRNA specific for IL-10 (AATAAGCTCCAAGAGAAAGGC) (SEQ ID NO: 2), delivered in vivo in a lipiodol/CFA composition (lipiodol/CFA formulation, further chemistry not given here)
recall proliferative response to KLH [4]: increased
IFN-γ production in KLH recall response [5]: enhanced
IFN-γ production in KLH recall response [5, 7]: Increased
IL-4 production in KLH recall response [6]: reduced
IL-4 production in KLH recall response [6, 7]: Decreased

Source: US20070269406A1, “Transcatheter tumor immunoembolization” (priority 2005, published 2007)
